Data: patent publication US11376268B2, “Methods and materials for treating human immunodeficiency virus infections” (priority 2015, dated 2022)

What was measured:
[1] = system: HDAC-1; assay: HDAC-1 expression in primary CD4 T cells (FIG. 11); type: cell-based
Description: (§1) FIG. 11. […] Proteosome inhibitors were analyzed for the ability to alter the expression of HDAC. Bortezomib and ixazomib decreased HDAC-1, HDAC-3, and HDAC-4 expression in primary CD4 T cells.

[2] = system: UPR pathway; assay: UPR pathway activation in J Lat cells: ATF4 and CHOP nuclear translocation, ATF6 cleavage (FIG. 13); type: cell-based; settings: bortezomib (10 nM) or ixazomib (50 nM)
Description: FIG. 13. J-LAT-10.6 or Jurkat cells were treated with bortezomib (10 nM) or ixazomib (50 nM) for the indicated times. Bortezomib and ixazomib induced ATF4 and CHOP translocation into the nucleus, and ATF6 cleavage in J Lat cells, indicating the activation of the UPR pathway.

[3] = system: HIV-LTR; assay: Luc expression in primary CD4 T cells infected with HIV luc or transfected with HIV-LTR Luc (FIG. 9); type: cell-based; settings: primary CD4 T cells infected with HIV luc or transfected with HIV-LTR Luc and TK renilla
Description: Primary CD4 T cells infected with HIV luc (top panel) or primary CD4 T cells transfected with HIV-LTR Luc and co-transfected TK renilla (bottom panel) were treated with the indicated doses of bortezomib or ixazomib, and analyzed for Luc expression as a measure of HIV reactivation.

[4] = system: HDAC-4; assay: HDAC-4 expression in primary CD4 T cells (FIG. 11); type: cell-based
Description: as §1

[5] = system: J-Lat cells (a model of HIV latency, using GFP tagged HIV); assay: J-Lat cells flow cytometry for HIV GFP expression and activated caspase 3 (FIG. 6); type: cell-based; settings: 24 hours, bortezomib 1, 10, or 20 nM, MLN-2238 (ixazomib) 10 or 50 nM
Description: FIG. 6 contains flow cytometry results of J-Lat cells (a model of HIV latency, using GFP tagged HIV) treated with nothing, bortezomib (1, 10, or 20 nM), or MLN-2238 (ixazomib; 10 or 50 nM) and analyzed 24 hours later for activated caspase 3 expression and for HIV expression.

[6] = system: UPR pathway; assay: UPR pathway activation in J Lat cells: phospho PERK, phospho IRE1, JNK (FIG. 12); type: cell-based; settings: bortezomib (10 nM) or ixazomib (50 nM)
Description: FIG. 12. J-LAT-10.6 or Jurkat cells were treated with bortezomib (10 nM) or ixazomib (50 nM) for the indicated times. Bortezomib and ixazomib induced phospho PERK, phospho IRE1, and JNK activation in J Lat cells, indicating the activation of the UPR pathway.

[7] = system: J-Lat cells (a model of HIV latency using GFP HIV); assay: J-Lat cells time course flow cytometry (FIG. 8); type: cell-based; settings: analyzed at 24, 48, and 72 hours
Description: J-Lat cells (a model of HIV latency using GFP HIV) were treated with bortezomib or ixazomib at the indicated doses and analyzed at 24, 48, and 72 hours.

[8] = system: CD4 T cells from an HIV positive patient with ART suppressed HIV replication; assay: Flow cytometry of CD4 T cells from an HIV positive patient for intracellular p24 and activated caspase 3 (FIG. 7); type: cell-based, human; settings: 48 hours
Description: FIG. 7 contains flow cytometry results of CD4 T cells from an HIV positive patient with ART suppressed HIV replication. Cells were treated with bortezomib or MLN-2238 (ixazomib) at the indicated doses and analyzed 48 hours later for intracellular p24 expression (as a measure of HIV reactivation), and for activated caspase 3 expression (as a measure of cell death).

[9] = system: HDAC-3; assay: HDAC-3 expression in primary CD4 T cells (FIG. 11); type: cell-based
Description: as §1

CC(C)C[C@H](NC(=O)[C@H](Cc1ccccc1)NC(=O)c1cnccn1)B(O)O [bortezomib, N-pyrazinecarbonyl-L-phenylalanine-L-leucine boronic acid]
HDAC-1 expression [1]: decreased
ATF4 translocation into the nucleus [2]: induced
ATF6 cleavage [2]: induced
CHOP translocation into the nucleus [2]: induced
HIV reactivation (Luc expression) [3]: independently reactivated HIV
HDAC-4 expression [4]: decreased
HIV reactivation (HIV GFP expression) [5]: caused HIV reactivation as indicated by increased HIV GFP expression
death of HIV GFP positive cells (activated caspase 3 expression) [5]: caused HIV GFP positive cells to die
JNK activation [6]: induced
phospho IRE1 [6]: induced
phospho PERK [6]: induced
HIV reactivation from latency [7]: caused HIV reactivation from latency
HIV reactivation (intracellular p24 expression) [8]: caused HIV reactivation as indicated by increased HIV p24 expression
death of HIV positive cells (activated caspase 3 expression in p24 positive cells) [8]: caused HIV positive cells to die
HDAC-3 expression [9]: decreased
